Measurements from patent US20120010159A1, “COMBINATION THERAPIES WITH COX-2 INHIBITORS AND TREPROSTINIL” (United Therapeutics Corporation, priority 2010, published 2012).

Key:
[1] = administered by subcutaneous infusion; cited from earlier work
[2] = bioavailability when delivered to the duodenum; assay type: in vivo; settings: duodenal delivery
Excerpt: Accordingly, one embodiment of the present invention involves preferential delivery of the desired compound to the duodenum as well as pharmaceutical formulations that achieve duodenal delivery. Duodenal administration can be achieved by any means known in the art. In one of these embodiments, the present compounds can be formulated in an enteric-coated dosage form. Generally, enteric-coated dosage forms are usually coated with a polymer that is not soluble at low pH, but dissolves quickly when exposed to pH conditions of 3 or above. This delivery form takes advantage of the difference in pH between the stomach, which is about 1 to 2, and the duodenum, where the pH tends to be greater than 4.

[3] = oral administration; cited from earlier work

| Structure (SMILES) | absolute bioavailability [1] [%] | bioavailability when delivered to the duodenum [2] | absolute oral bioavailability [3] [%] |
| --- | --- | --- | --- |
| CCCCC[C@H](O)CC[C@@H]1[C@H]2Cc3cccc(OCC(=O)O)c3C[C@H]2C[C@H]1O [treprostinil sodium] | ~100 | – | – |
| CCCCC[C@H](O)CC[C@@H]1[C@H]2Cc3cccc(OCC(=O)O)c3C[C@H]2C[C@H]1O [treprostinil] | – | increased bioavailability | ~10 |
